According to patent publication US20200384072A1, “THERAPY OF IONIZING RADIATION-INDUCED DISORDERS” (SCK-CEN, priority 2019, published 2020):

How the values were obtained:
[1] = test system: primary brain microvascular endothelial cells (pBMECs); assay: γ-H2AX counts after local 3×3 mm X-ray irradiation (irradiated and bystander zones), pBMECs; type: cell-based, mouse; details: 1 Gy, 3 h post-irradiation
Method: Cortices, from 10-12 week old mice, were isolated by removing cerebellum, striatum, optic nerves, brain white matter, outer vessels and meninges. After homogenization with a Dounce homogenizer in WBB (Washing Buffer B: HMS, 10 mM Hepes, 0.35 g/L NaHCO3, 0.1% BSA), the homogenate was mixed with 30% dextran in WBB and centrifuged at 3000×g for 25 min at 4° C. The pellet containing the vascular component was then resuspended in WBB and filtered through a 60 μm NY60 Nylon Net Filter (Millipore, Darmstadt, Germany). Following centrifugation at 1000×g for 7 min at room temperature, the pellet was digested in collagenase/dispase supplement with DNase I (Roche Diagnostics, Vilvoorde, Belgium) and TLCK (Tosyl, Lysin chloromethyl ketone, sigma-aldrich) for 33 min at 37° C. in a shaking water bath. The digested capillary suspension was then seeded after multiple washing steps on wells coated with matrigel or glass coated with Corning Cell-Tak (VWR, Leuven, Belgium). For the isolation of intact capillaries the protocol was aborted just before the digestion step.
A defined area of the cell culture dishes were exposed to X-rays (1Gy or 20 Gy) by using a small animal radiation research platform (SARRP, Xstrahl, 220 kV, 13 mA), making use of a 3×3 mm collimator. Whole dish irradiation was done using a 10×10 cm broad-beam collimator, while localized Irradiation was performed with a 3×3 mm collimator. A Gafchromic RTQA2 film, with a sensitivity of 0.02 Gy, was placed underneath the cell dishes in order to delineate the irradiated zone.
Cells were fixed for 25 min with 4% formaldehyde (VWR) and blocked for 30 min with blocking buffer (5% normal goat serum, 1% bovine serum albumin (BSA), 0.2% Triton X-100 in PBS D+). Overnight incubation with primary antibody (1/500 anti-γ-H2AX in dilution buffer, 1/10 blocking buffer in PBS D+) was followed by a 1 h incubation with 1/400 XX-biotin-goat-anti-mouse antibody in dilution buffer, followed by a 1 h incubation with 1/400 streptavidin-alexa488 in PBS D+. Nuclei were stained with 1 μg/mL DAPI in PBS D+ for 10 min and cells were kept in PBS D+ supplemented with NaN3 at 4° C. All steps except the overnight incubation which was carried out at 4° C., were carried out at room temperature and cell cultures were rinsed thoroughly with PBS D+ between all incubation steps. Imaging was performed with an automated BD Pathway 435 imaging system (10× objective, 10×10 montage resulting in an overall image size of 8.5×6.5 mm). We then quantified the number of γ-H2AX-foci positive nuclei in the directly irradiated and bystander areas and expressed the count as a percentage relative to the number of nuclei and subtracted the percentage of background γ-H2AX signal in non-irradiated paired control cultures for each experiment. For counting γ-H2AX foci, images were thresholded to remove background pixel noise below the foci level. Where applicable, results were normalized against vehicle (bar charts with a 100% vehicle bar without statistical variability or a horizontal line).

TICAE cells = assay: IGFBP-7 and GDF-15 multiplex-based assays, TICAE cells; type: cell-based, human; details: 7 d p.i.
Method: TICAE and TIME cells were seeded in a 6-well plate at a density of 2.5×10^5 cells/well in 5 to 6 biological replicates. Two to three days later, cells reached 100% confluence. At 30 minutes before X-ray exposure, cells were refreshed with medium with or without 100 μM TAT-Gap19 (Genosphere Biotechnologies, Paris, France). At 24 h, 48 h, 72 h and 7 d after irradiation, the supernatant was collected. Medium was changed only for the 7 d time point experiment at the fourth day with fresh medium alone or with medium supplemented with 100 μM TAT-Gap19. For the simultaneous detection of multiple cytokines in the supernatants, the Magnetic Luminex® Assay (R&D systems, Minneapolis, […]) was used following manufacturer's instructions. Briefly, supernatants, standards and microparticles were incubated into a 96-well plate which was pre-coated with cytokine-specific antibodies. The immobilized antibodies were able to bind the cytokines of interest after 2 h incubation, then the plate was washed and incubation with a biotinylated antibody cocktail specific to the cytokines of interest was performed for 1 h. A second wash was performed to remove the unbound biotinylated antibodies. Further, a streptavidin-phycoerythrin conjugate was added to each well to bind to the biotinylated antibodies. After a final wash, the microparticles were resuspended in buffer and read using the Luminex® MAGPIX Analyzer (R&D systems, Minneapolis, […]).

Cx43 hemichannels = target: T1, Cx43 hemichannels (Homo sapiens, UniProt P17302); assay: Propidium iodide dye uptake assay after irradiation, TICAE cells; type: cell-based
T1 construct: endogenous in cells; host or cells: TICAE and TIME cells (human endothelial cell lines)
Excerpt: Hemichannel opening was also investigated by dye uptake studies making use of the hemichannel permeable fluorescent tracer propidium iodide (PI; MW 668.4 Da). In addition, dextran fluorescein 10 kDa dye was used to assess membrane integrity and occurrence of cell death. PI stains cells with open hemichannels, late apoptotic and necrotic cells, while dextran fluorescein only stains late apoptotic and necrotic cells. Therefore, PI-positive and dextran fluorescein-negative cells are a measure for hemichannel opening while dextran fluorescein-positive cells are a measure for dead cells.
TICAE and TIME cells were seeded in a 24-well plate at a density of 1.25×10^5 and 1.5×10^5 cells/well, respectively, in six biological replicates. Three days later, cells reached 100% confluence. Thirty minutes before irradiation, cells were refreshed with 1 ml medium alone or with medium supplemented with 100 μM TAT-Gap19 (Genosphere Biotechnologies, Paris, France). For fractionated irradiation, cells were refreshed with 1.5 ml medium/well. At different time points after irradiation (1, 6 and 72 h), cells were washed twice with HMS supplemented with 25 mM HEPES (Sigma-Aldrich Co. LCC, Diegem, Belgium) (HBSS-HEPES). Afterwards, the cells were incubated with 1 mM PI and 200 μM dextran fluorescein (10 kDa) (Life Technologies, Merelbeke, Belgium), dissolved in HBSS-HEPES for 5 minutes followed by 5 times washing with MSS-HEPES. Finally, the fluorescence was measured using an IncuCyte ZOOM® system (Essen BioScience, Ann Arbor, Mich., USA) by using different channels (TRITC, FITC and phase contrast) and a 10× objective Fluorescence signal was normalized to cell number.

T1 sequence (P17302 whole entry): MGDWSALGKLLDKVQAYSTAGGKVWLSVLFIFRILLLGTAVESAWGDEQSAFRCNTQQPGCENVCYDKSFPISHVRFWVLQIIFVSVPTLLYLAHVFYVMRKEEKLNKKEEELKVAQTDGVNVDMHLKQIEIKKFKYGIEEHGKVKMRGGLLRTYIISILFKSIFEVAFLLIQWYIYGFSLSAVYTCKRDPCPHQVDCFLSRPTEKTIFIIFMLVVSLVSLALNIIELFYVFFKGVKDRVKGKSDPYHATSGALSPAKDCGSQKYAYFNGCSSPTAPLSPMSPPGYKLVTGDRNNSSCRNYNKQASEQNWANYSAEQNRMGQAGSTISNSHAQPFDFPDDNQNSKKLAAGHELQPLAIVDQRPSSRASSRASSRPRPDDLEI

Substance: TAT-Gap19: connexin mimetic peptide, amino-acids 128-136 of the CL of Cx43 (SEQ ID NO: 2), Gap19 linked to TAT sequence; Cx43 hemichannel inhibitor (YGRKKRRQRRRKQIEIKKFK)
- γ-H2AX counts in the bystander zone (normalized to vehicle) [1]: only had effect in the bystander zone
- γ-H2AX counts in the irradiated area (normalized to vehicle) [1]: only had effect in the bystander zone
- GDF-15 (TICAE cells; 100 μM TAT-Gap19, 0, 0.1 and 5 Gy): significantly inhibited these responses in all treated conditions
- IGFBP-7 (TICAE cells; 100 μM TAT-Gap19, 0.1 Gy): acted in a significantly inhibitory way
- IGFBP-7 (radiation-induced increase) (TICAE cells; 100 μM TAT-Gap19, 5 Gy): not inhibited
- radiation-induced PI dye uptake (Cx43 hemichannels; 100 μM TAT-Gap19, fractionated 5 Gy, 72 h): had no effect
- radiation-induced PI dye uptake (Cx43 hemichannels; 100 μM TAT-Gap19, single 5 Gy, 1 h p.i.): Significant inhibition
- radiation-induced PI dye uptake (Cx43 hemichannels; 100 μM TAT-Gap19, single irradiation, 72 h p.i.): most clear and significant at the 72 h p.i. time point
